In US12187679B2, “Hydroxylated psilocybin derivatives and methods of using” (Enveric Biosciences Canada Inc., priority 2020, dated 2025):

Key:
[1] = biological target: 5-HT2A receptor (Homo sapiens, UniProt P28223); experiment: Fluo-8 calcium release assay, serotonin with and without compound (positive allosteric modulation), +5-HT2A cells; type: cell-based; details: serotonin 3 uM with compound 3 uM, FIG. 8C
Excerpt: (§1) Cell lines for pharmacology assays. CHO-K1/Galpha15 (GenScript, M00257) (−5-HT2A) and CHO-K1/5-HT2A (GenScript, M00250) (+5-HT2A) cells lines were used in both toxicology/growth inhibition (MTT) and calcium release assays. Briefly, CHO-K1/Galpha15 is a control cell line that constitutively expresses Galpha15 which is a promiscuous Gq protein. It is engineered as a host cell, allowing transfected receptor(s) to signal through the Gq signal transduction pathway and mobilize intracellular calcium from the endoplasmic reticulum (ER). These control cells lack any transgene encoding 5-HT2A receptors, thus preventing calcium mobilization in response to 5-HT2A activation. Conversely, CHO-K1/5-HT2A cells stably express 5-HT2A receptor in the CHO-K1 host background. […]
(§2) Increase in cytosolic calcium concentration by 5-HT2A activation and assessment of modulation. Changes in intracellular calcium concentration due to the treatment with assay compounds was measured using Fluo-8 dye (Abcam, #ab112129) according to the manufacturer's instructions. […] Fluorescence (ex 490 nm/em 525 nm) obtained after the addition of molecules was expressed relative to values obtained before addition of the molecules (relative Fluo-8 fluorescence=Fmax/F0, where Fmax=maximum fluorescence and F0=baseline fluorescence). Fluorescence intensities were measured using a Spectramax ID3 plate reader (www.moleculardevices.com). […]

[2] = tested on: CHO-K1/Galpha15 cells lacking 5-HT2A; experiment: Fluo-8 calcium release control assay in -5-HT2A cells; type: cell-based, Chinese Hamster; details: FIG. 8D panel A
Excerpt: as §1, §2

5-HT2A receptor, sequence (P28223 whole entry): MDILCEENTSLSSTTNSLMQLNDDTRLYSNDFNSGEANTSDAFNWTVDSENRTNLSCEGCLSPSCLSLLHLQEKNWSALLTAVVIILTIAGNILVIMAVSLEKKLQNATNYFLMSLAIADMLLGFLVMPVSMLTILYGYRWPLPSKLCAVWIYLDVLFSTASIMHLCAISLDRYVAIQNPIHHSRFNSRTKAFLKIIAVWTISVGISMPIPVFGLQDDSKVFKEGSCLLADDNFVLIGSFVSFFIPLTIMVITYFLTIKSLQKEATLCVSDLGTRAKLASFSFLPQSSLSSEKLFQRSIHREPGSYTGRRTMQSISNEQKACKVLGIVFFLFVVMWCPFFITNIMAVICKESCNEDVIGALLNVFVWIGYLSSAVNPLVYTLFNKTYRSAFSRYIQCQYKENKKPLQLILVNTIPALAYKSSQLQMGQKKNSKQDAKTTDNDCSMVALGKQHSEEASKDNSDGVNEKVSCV

| Compound | time-dependent calcium flux (relative fluorescence, RFU) in response to serotonin with compound vs serotonin alone [1] | calcium response (relative Fluo-8 fluorescence) [2] |
| --- | --- | --- |
| CC(=O)NCCc1c[nH]c2c(C)ccc(O)c12 [compound (IV), N-[2-(4-hydroxy-7-methyl-1H-indol-3-yl)ethyl]acetamide] | elevated flux |  |
| NCCc1c[nH]c2ccc(O)cc12 [serotonin, 5-hydroxytryptamine] |  | did not exhibit a response |
